We go through five molecules from US6413914B1, “Low foam N,N′-dialkylmalamide wetting agents” (Air Products and Chemicals, Inc., priority 2001, dated 2002).

Common to all, as to assay type: physicochemical
Data set [1] is described as follows: Foaming properties, procedure based upon ASTM D 1173-53. The following applies: for Initial Foam: foam height at completion of addition. As for the experimental part: The foaming properties of aqueous solutions of N,N′-di-iso-pentyl DL-malamide (Ex 2) and N,N′-di-2-ethylhexyl DL-malamide (Ex 3), were examined using a procedure based upon ASTM D 1173-53. In this test, a 0.1 wt % aqueous mixture of the surfactant was prepared, any undissolved solids were filtered off, and the filtrate was added from an elevated glass pipette to a glass receiver containing the same filtrate. The foam height was measured at the completion of the addition (“Initial Foam Height”) and the time required for the foam to dissipate at the air-liquid interface (“Time to 0 Foam”) was recorded. This test provides a comparison between the foaming characteristics of various surfactants. In general, in coatings, inks, adhesives, fountain solution, agricultural, and electronic chemical formulations, foam is undesirable because it complicates handling and can lead to coating and print defects, and to inefficient application of agricultural materials or electronic chemicals.
The foaming properties of 0.1 wt % solutions of two representative nonionic surfactants, a commercial nonylphenol 15 mole ethoxylate surfactant and a commercial C8 alkyl glucoside surfactant were examined using the procedure based upon ASTM D 1173-53.

Data set [2] in a line: Equilibrium surface tension, Wilhelmy plate method, saturated solutions in distilled water. The following applies: for Limiting EST: saturated solution in distilled water, undissolved material filtered off, Wilhelmy plate, 25° C. The procedure: (§1) Saturated solutions of the materials of Examples 1-3 in distilled water were prepared. After shaking the solutions for ˜24 hours, the undissolved material was removed via filtration. Equilibrium surface tension data were obtained using the Wilhelmy plate method, described in L. Wilhelmy, Ann. Phys. 1863, 119, 177.
The limiting surface tensions represent the lowest surface tensions in water which can be achieved for a given surfactant regardless of the amount of surfactant used and is used to evaluate the effectiveness of a surfactant. Lower surface tensions would allow for the elimination of defects upon application of a formulation onto low energy surfaces.

The nature of data set [3]: Concentration of surfactant in filtered saturated solution in distilled water. As to conditions: shaken ~24 hours. The procedure:
as §1

Setting [4] is: 0.1 wt % aqueous mixture, filtered.

Take C8 Alkyl glucoside [reference compound]: in data set [1] (setting [4]), the “Foam after 5 min” value amounted to 1.0 cm and the “Initial Foam” value is recorded as 1.9 cm. Also, the “Time to zero foam” value in data set [1] (0.1 wt % solution) turned out to be 37 min.

For `CCCCC(CC)CNC(=O)CC(O)C(=O)NCC(CC)CCCC` (racemic) [Di-2-ethylhexyl DL-malamide (Ex 3), N,N′-Di-2-ethylhexyl DL-malamide], in data set [2], the “Limiting EST” value is listed as 38.5 dyne/cm and the “lowering the equilibrium surface tension of water (in words)” value is reported as “particularly effective”. Besides, the “Concentration of Surfactant in Solution” value in data set [3] was below 0.1 wt. %. For the same molecule, in data set [1] (setting [4]), the “Time to zero foam” value is recorded as “˜2 sec”, the “Foam after 5 min” value was 0 cm and the “Initial Foam” value is 1.5 cm.

Take `CC(C)CNC(=O)CC(O)C(=O)NCC(C)C` (racemic) [Di-isobutyl DL-malamide (Ex 1), N,N′-Di-iso-butyl DL-malamide]: in data set [2], the “Limiting EST” value is 51.3 dyne/cm. Further, in data set [3], the “Concentration of Surfactant in Solution” value was below 1.0 wt. %.

Regarding “Nonylphenol 15 mole ethoxylate [reference compound]”, in data set [1] (setting [4]), the “Foam after 5 min” value turned out to be 4 cm and the “Initial Foam” value was 5 cm. In addition, the “Time to zero foam” value in data set [1] (0.1 wt % solution) is recorded as above 5 min.

In the case of `CC(C)CCNC(=O)CC(O)C(=O)NCCC(C)C` (racemic) [Di-isopentyl DL-malamide (Ex 2), N,N′-Di-iso-pentyl DL-malamide], in data set [2], the “Limiting EST” value was determined as 42.9 dyne/cm and the “lowering the equilibrium surface tension of water (in words)” value was “particularly effective”. Also, the “Concentration of Surfactant in Solution” value in data set [3] is below 0.4 wt. %. In data set [1] (setting [4]), the “Time to zero foam” value turned out to be 0.583 min, the “Foam after 5 min” value amounted to 0 cm and the “Initial Foam” value was determined as 1.4 cm.
